“Also recorded” adds a separate entry of the source. Like-named read-outs stand apart in the source and are kept apart here.

The record followed here is patent US7632863B2, “3,4,5,4′-tetramethoxyl-α,β-diphenylethane-3′-O-sodium sulphate and its use” (The Jian Cell Biomedical Research Co., Ltd., priority 2007, dated 2009).

One series is described as follows: Water solubility. In kind it is physicochemical.
The test system of a further series is Lewis lung cancer. The experiment in a line: Joint administration of AS and DDP, murine model of Lewis lung cancer (Example Five). In kind it is in vivo, C57BL/6J mice. As to conditions: for Tumor inhibiting rate % / Tumor weight: i.v., mice bearing Lewis lung cancer. From the text: (1) Sample: 3,4,5,4′-tetramethoxyl-α,β-diphenylethane-3′-O-sodium sulphate (AS), raw material medicine, provided by Zhejiang Cell Biomedical Research Co., Ltd., and prepared by the process in Example One. Batch No.: 061025. Dissolved by physiological saline for the concentration needed.
(2) Cisplatin: Cisplatin for injection (DDP), Qilu Pharmaceutical Co., Ltd. Batch No.: 5120282DC; Dissolved by physiological saline for preparation
(3) Control product: Cyclophosphamide for injection (CTX), Jiangsu Hengrui Pharmaceutical Inc. Co. Batch No.: 04123021. Dissolved by physiological saline for preparation.
(1) C57BL/6J mouse bearing Lewis lung cancer
(2) 70 C57BL/6J mice, female, weighing 17-21 g. Provided by the animal house of Zhejiang Cell Biomedical Research Co., Ltd.
(1) Taking tumor from C57BL/6J mouse under aseptic condition, grinding and diluting it by physiological saline 1:3 (weight:volume), and giving hypodermic inoculation 0.2 ml per mouse in the armpit of the right forelimb of each mouse. dividing the mice into 7 groups randomly the next day, 10 in each group.
(2) After inoculation, waiting till the tumor has grown to the accessible size, administering medicine according to body weight, 0.5 ml/20 g intravenous, for 11 days, putting the mice to death on the 19th after inoculation, taking out and weighing the tumor, and calculating the tumor inhibiting rate.
(§1) (4) Judging the result with the following formula: […]

The subject of the next series is S180 sarcoma. The following applies: for 0 d weight / 11 d weight without tumor / Tumor inhibiting rate % / Tumor weight: i.v., S180 sarcoma-bearing mice.
Excerpt: (1) Sample: 3,4,5,4′-tetramethoxyl-α,β-diphenylethane-3′-O-sodium sulphate (AS) provided by Zhejiang Cell Biomedical Research Co., Ltd., and prepared by the process in Example One. Dissolved by physiological saline for the concentration needed.
(2) Cisplatin: Cisplatin for injection (DDP), Qilu Pharmaceutical Co., Ltd. Batch No.: 5120282DC. Dissolved by physiological saline for preparation.
(3) Control product: Cyclophosphamide for injection (CTX), Jiangsu Hengrui Pharmaceutical Inc. Co. Batch No.: 04123021 Dissolved by physiological saline for preparation.
(1) KM mouse bearing S180 sarcoma.
(2) 70 KM mice, female, weighting 18-22 g, provided by Zhejing College of Traditional Chinese Medicine.
(1) Drawing ascites under aseptic condition from mouse bearing S180 sarcoma, diluting with physiologic saline 1:3, giving subcutaneous inoculation in the armpit of the right forelimb of the KM mice with 0.2 ml each; dividing the mice into 7 groups randomly the next day, 10 in each group.
(2) Administering drug to the mice by weight the third day of inoculation, intravenous administration 0.5 ml/20 g […], by weight, and putting them to death on the 11th day after inoculation, weighing the tumor and calculating the rate of tumor inhibition.
(3) dosage (mg/kg/d) and means of administration:
AS: 50 mg/kg, tail vein injection
AS: 100 mg/kg, tail vein injection
AS: 200 mg/kg, tail vein injection
DDP: 1 mg/kg, tail vein injection
AS+DDP: 50 mg/kg+1 mg/kg, tail vein injection
CTX: 30 mg/kg, tail vein injection
Setting up another blank control group, tail vein injection of 0.9% NaCl 0.5 ml.
as §1

Consider `COc1ccc(CCc2cc(OC)c(OC)c(OC)c2)cc1OS(=O)(=O)[O-].[Na+]` [AS, 3,4,5,4′-tetramethoxyl-α,β-diphenylethane-3′-O-sodium sulphate], for which the “water solubility (in words)” value in the series “Water solubility” is recorded as “good water solubility”. The “Tumor inhibiting rate %” value with Lewis lung cancer (Dosage 50 mg/kg) is 35.5%; in the series on Lewis lung cancer (Dosage 100 mg/kg), 36.4%; in the series with Lewis lung cancer (Dosage 200 mg/kg), 52.1%; in the series with S180 sarcoma (Dosage 50 mg/kg), 44%; with S180 sarcoma (Dosage 100 mg/kg), 29%; in the series on S180 sarcoma (Dosage 200 mg/kg), 54%. Moreover, the Tumor weight in the series on Lewis lung cancer (Dosage 50 mg/kg) is 3.03 ± 0.55 g; with Lewis lung cancer (Dosage 100 mg/kg), 2.99 ± 0.50 g; in the series on Lewis lung cancer (Dosage 200 mg/kg) it was 2.25 ± 0.75 g; in the series on S180 sarcoma (Dosage 50 mg/kg), 1.63 ± 1.43 g; in the series on S180 sarcoma (Dosage 100 mg/kg), 2.07 ± 1.03 g; in the series on S180 sarcoma (Dosage 200 mg/kg) it was 1.34 ± 0.53 g. Further, the “inhibiting the tumor in murine model of Lewis lung cancer (in words)” value in the series with Lewis lung cancer (alone) is “quite effective”. Moreover, the “inhibiting the tumors in murine model of Lewis lung cancer (in words)” value in the series on Lewis lung cancer (joint administration with DDP) was “certain coordinated effect”. Also, the 0 d weight in the series with S180 sarcoma (Dosage 50 mg/kg) stood at 21.06 ± 0.82 g; in the series with S180 sarcoma (Dosage 100 mg/kg), 20.46 ± 1.03 g; in the series with S180 sarcoma (Dosage 200 mg/kg), 20.45 ± 0.86 g. Besides, the “11 d weight without tumor” value in the series on S180 sarcoma (Dosage 50 mg/kg) stood at 25.89 ± 3.32 g; with S180 sarcoma (Dosage 100 mg/kg) it was 28.42 ± 4.13 g; in the series with S180 sarcoma (Dosage 200 mg/kg), 27.10 ± 2.44 g. The “effect in inhibiting S180 tumors (in words)” value with S180 sarcoma (joint administration with DDP) was “fine coordinating effect; also recorded: excellent coordinating effect”.
